From patent US11026426B2, “Oxadiazole and phenol derivatives as antibacterial and/or herbicidal agents” (NORTHERN ILLINOIS RESEARCH FOUNDATION, priority 2017, dated 2021)
Read-outs that look alike come from different tables or passages of the source.

Assays:
[1] = molecular target: T1, Mycobacterium tuberculosis IspD (MtIspD) (Mycobacterium tuberculosis, UniProt P9WKG9); experiment: Thermal shift assay against MtIspD; type: binding
T1 sequence (P9WKG9 1-231): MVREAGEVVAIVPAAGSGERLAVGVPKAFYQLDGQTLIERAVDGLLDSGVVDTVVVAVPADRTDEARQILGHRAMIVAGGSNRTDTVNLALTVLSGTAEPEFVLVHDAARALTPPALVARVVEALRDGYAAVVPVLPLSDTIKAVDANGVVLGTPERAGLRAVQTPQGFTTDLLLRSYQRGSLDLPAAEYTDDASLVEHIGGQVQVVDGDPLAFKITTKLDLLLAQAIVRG

[2] = molecular target: Lycopersicon esculentum IspE (LeIspE) (Solanum lycopersicum, UniProt P93841); experiment: Thermal shift assay against LeIspE; type: binding
[3] = molecular target: Mycobacterium paratuberculosis IspD (MpIspD) (Mycolicibacterium paratuberculosis, UniProt Q743W5); experiment: Thermal shift assay against MpIspD; type: binding
lettuce seeds = experiment: Lettuce leaf assay; type: in vivo; parameters: key: 0 (no effect); 5(complete inhibition or bleaching); conditions: ranking 0-5
Summary of the method: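 Qualitative assay: compounds in volatile organic solvent applied to filter paper in a petri dish, solvent evaporated, lettuce seeds and 5 mL water added to give test concentrations. Germination, root development and leaf bleaching scored days 3 and 4, ranked 0 (no effect) to 5 (complete inhibition or bleaching).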

AtIspD = AtIspD (Arabidopsis thaliana, UniProt P69834); experiment: University of Hamburg photometric enzymatic inhibition assay AtIspD; type: biochemical; conditions: read-out: AtIspD IC50
Summary of the method: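 Coupled photometric assay: 2.4 mU AtIspD with 1 mM (2R,3S)-2,3-dihydroxy-4-oxopentyl phosphate, 2.1 mM CTP, excess IspE (0.4 U), ATP, pyruvate kinase/lactate dehydrogenase and 460 μM NADH. Run in 100 mM Tris-HCl pH 8.0, 10 mM MgCl2, 1 mM DTT, 1.1% DMSO at 27 °C, monitored photometrically.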

LeIspE = LeIspE (Solanum lycopersicum, UniProt P93841); experiment: University of Hamburg photometric enzymatic inhibition assay LeIspE; type: biochemical, Lycopersicon esculentum; conditions: read-out: LeIspE IC50
Summary of the method: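 Photometric coupled assay with pyruvate kinase/lactate dehydrogenase following NADH (460 μM). Mix: 100 mM Tris-HCl pH 8.0, 10 mM MgCl2, 1 mM DTT, 2.5 mM phosphoenolpyruvate, 2 mM ATP, 1 mM 4-diphosphocytidyl-2-C-methylerythritol, 1.1% DMSO, 2.4 mU IspE; incubated at 27° C.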

AtIspF = AtIspF (Arabidopsis thaliana, UniProt Q9CAK8); experiment: University of Hamburg photometric enzymatic inhibition assay AtIspF; type: biochemical; conditions: read-out: AtIspF IC50
Summary of the method: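 Coupled photometric assay (CMP kinase/pyruvate kinase/lactate dehydrogenase, NADH consumption) with 2.4 mU AtIspF and 1 mM 4-diphosphocytidyl-2C-methylerythritol 2-phosphate, 2 mM ATP, in 100 mM Tris-HCl pH 8.0, 10 mM MgCl2, 1.1% DMSO. Monitored at 27 °C.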

[4] = system: Burkholderia thailandensis; type: cell-based; conditions: preliminary screening, score 0-3
Mycobacterium smegmatis [5] = experiment: Antibacterial preliminary screening MS; type: cell-based; conditions: score 0-3; further: key: 0 represents no inhibition; 3 is comparable to commercial antibiotic control
Corynebacterium xerosis [6] = experiment: Antibacterial preliminary screening CX; type: cell-based; conditions: score 0-3; further: key: 0 represents no inhibition; 3 is comparable to commercial antibiotic control
[7] = system: Corynebacterium pseudodiphtheriae; experiment: Antibacterial preliminary screening CP; type: cell-based; conditions: score 0-3;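 further: 0 is no inhibition and 3 matches the commercial antibiotic control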
Escherichia coli [8] = experiment: Antibacterial preliminary screening EC; type: cell-based; conditions: score 0-3; further: key: 0 represents no inhibition; 3 is comparable to commercial antibiotic control
Klebsiella pneumonia [9] = experiment: Antibacterial preliminary screening KP; type: cell-based; conditions: score 0-3; further: key: 0 represents no inhibition; 3 is comparable to commercial antibiotic control
Micrococcus luteus [10] = experiment: Antibacterial preliminary screening ML; type: cell-based; conditions: score 0-3
Bacillus cereus [11] = experiment: Antibacterial preliminary screening BC; type: cell-based; conditions: score 0-3
Pseudomonas aeruginosa [12] = experiment: Antibacterial preliminary screening PA; type: cell-based; conditions: for PA score: score 0-3
[13] = molecular target: IspD of Mycobacterium paratuburculosis (Mycolicibacterium paratuberculosis, UniProt Q743W5); experiment: STD-NMR fragment screening MpIspD; type: binding; conditions: Fragments of Life library screening
[14] = system: IspE of Mycobacterium abscessus; experiment: STD-NMR fragment screening MaIspE; type: binding; conditions: Fragments of Life library screening
Ec IspE = Ec IspE (Escherichia coli, UniProt P62615); experiment: Kinase-Glo luminescent enzymatic assay Ec IspE; type: biochemical
Bt IspE [15] = molecular target: T2, Bt IspE (Burkholderia thailandensis, UniProt Q2T1B6); experiment: biochemical
[16] = system: Burkholderia thailandensis; type: cell-based
Pseudomonas aeruginosa [17] = experiment: Antibacterial assay zone of inhibition Pa; type: cell-based
Micrococcus luteus [18] = experiment: Antibacterial assay zone of inhibition Ml; type: cell-based
Klebsiella pneumonia [19] = experiment: Antibacterial assay zone of inhibition Kp; type: cell-based
Escherichia coli [20] = experiment: Antibacterial assay zone of inhibition Ec; type: cell-based
Bacillus cereus [21] = experiment: Antibacterial assay zone of inhibition Bc; type: cell-based
Mycobacterium smegmatis [22] = experiment: Antibacterial assay zone of inhibition Ms; type: cell-based
Corynebacterium xerosis [23] = experiment: Antibacterial assay zone of inhibition Cx; type: cell-based
[24] = system: Corynebacterium pseudodiphtheriae; experiment: Antibacterial assay zone of inhibition Cp; type: cell-based
Bt IspE [25] = molecular target: T2, Bt IspE; experiment: ITC binding study with Bt IspE
Experimental: All ITC experiments were performed under the same conditions as described herein. Compounds were dissolved in DMSO and brought to concentration with the dialysis buffer, with a maximum DMSO concentration of 10% by volume which was matched between ligand and enzyme, and centrifuged at 10,000 RPM for 10 minutes. The dialysis buffer was used for all sample dilutions to ensure buffers matching between the titrant and titrate, thus minimizing the excess heat due to buffer mismatch. ITC experiments were performed with IspE in the cell and ligand in the syringe. The initial injection volume was 2 μL (omitted) followed by 27 10 μL injections, every 240 seconds. Samples were run at 25° C., at pH 7.4, with a stirring speed of 307 RPM. Dilution runs were performed to allow determination of background heats caused by solution mismatch and instrument noise. Dilution runs were performed with ligand (at the same concentration as in the experiment run) in the syringe titrated into the dialysis buffer in the cell. Data were fit using OriginPro 7 with the ITC add-on by the manufacturer.

[26] = molecular target: Arabidopsis thaliana IspD (Arabidopsis thaliana, UniProt P69834); conditions: read-out: AtIspD IC50, cited from earlier work
Arabidopsis thaliana IspD, sequence (P69834 62-302): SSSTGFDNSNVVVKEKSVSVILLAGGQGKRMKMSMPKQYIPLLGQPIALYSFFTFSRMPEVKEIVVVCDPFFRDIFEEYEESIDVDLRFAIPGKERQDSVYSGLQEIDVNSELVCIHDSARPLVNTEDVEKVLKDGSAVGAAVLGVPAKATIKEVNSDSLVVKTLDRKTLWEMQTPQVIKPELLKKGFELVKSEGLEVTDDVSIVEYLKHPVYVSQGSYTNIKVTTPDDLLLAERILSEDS

Lycopersicon esculentum IspE (LeIspE), sequence (P93841 89-401): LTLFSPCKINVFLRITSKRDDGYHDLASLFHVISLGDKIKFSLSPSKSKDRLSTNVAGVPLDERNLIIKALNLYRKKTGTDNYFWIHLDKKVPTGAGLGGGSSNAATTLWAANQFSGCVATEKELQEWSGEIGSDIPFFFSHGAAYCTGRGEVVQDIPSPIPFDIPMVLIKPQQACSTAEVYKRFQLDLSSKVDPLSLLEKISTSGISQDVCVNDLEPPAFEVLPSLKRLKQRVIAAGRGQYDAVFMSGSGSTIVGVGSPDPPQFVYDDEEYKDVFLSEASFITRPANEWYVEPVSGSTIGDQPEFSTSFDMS
T2 sequence (Q2T1B6 whole entry): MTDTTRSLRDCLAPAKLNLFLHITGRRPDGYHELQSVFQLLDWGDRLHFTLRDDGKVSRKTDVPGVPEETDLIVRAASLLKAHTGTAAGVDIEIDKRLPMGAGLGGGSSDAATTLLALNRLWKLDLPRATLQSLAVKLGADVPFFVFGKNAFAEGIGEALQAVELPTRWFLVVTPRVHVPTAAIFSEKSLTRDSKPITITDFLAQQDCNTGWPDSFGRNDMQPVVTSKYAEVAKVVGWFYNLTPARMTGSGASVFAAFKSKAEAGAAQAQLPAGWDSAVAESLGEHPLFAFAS
LeIspE, sequence (P93841 89-401): as the sequence (P93841 89-401) above
AtIspD, sequence (P69834 62-302): as the sequence (P69834 62-302) above
AtIspF, sequence (Q9CAK8 53-231): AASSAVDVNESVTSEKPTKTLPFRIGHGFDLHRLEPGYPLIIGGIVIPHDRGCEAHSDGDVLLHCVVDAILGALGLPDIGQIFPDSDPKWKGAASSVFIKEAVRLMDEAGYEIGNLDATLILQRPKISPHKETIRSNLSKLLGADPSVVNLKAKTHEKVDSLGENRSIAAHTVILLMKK
Ec IspE, sequence (P62615 whole entry): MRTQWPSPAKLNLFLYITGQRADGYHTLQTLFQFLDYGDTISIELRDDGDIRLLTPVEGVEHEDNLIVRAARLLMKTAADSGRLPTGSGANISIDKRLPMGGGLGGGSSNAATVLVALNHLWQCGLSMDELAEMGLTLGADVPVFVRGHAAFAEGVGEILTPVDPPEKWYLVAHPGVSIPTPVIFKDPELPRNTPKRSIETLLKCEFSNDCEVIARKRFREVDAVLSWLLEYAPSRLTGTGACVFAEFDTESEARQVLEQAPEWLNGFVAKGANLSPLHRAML
Mycobacterium paratuberculosis IspD (MpIspD), sequence (Q743W5 whole entry): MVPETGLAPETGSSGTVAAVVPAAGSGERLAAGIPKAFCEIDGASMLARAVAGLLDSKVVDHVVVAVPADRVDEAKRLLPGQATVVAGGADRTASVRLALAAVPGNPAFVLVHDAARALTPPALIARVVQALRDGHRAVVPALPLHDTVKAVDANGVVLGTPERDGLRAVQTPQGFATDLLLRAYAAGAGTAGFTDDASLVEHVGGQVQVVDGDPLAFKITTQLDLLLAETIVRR
IspD of Mycobacterium paratuburculosis, sequence (Q743W5 whole entry, the tested form may be a part): as the sequence (Q743W5 whole entry) above

c1ccc2[nH]c(-c3nnco3)cc2c1 [HGN-207, 2-(1H-indol-2-yl)-1,3,4-oxadiazole]
MtIspD melting point change [1]: 1.5 °C
MtIspD melting temp [1]: 49.5 °C
LeIspE melting point change [2]: −1.25 °C
LeIspE melting temp [2]: 48.25 °C
MpIspD thermal shift (positive shift) [3]: 0.8 °C
Bleaching (lettuce seeds; 0.5 mM): 2
Germination (lettuce seeds; 0.5 mM): 2
Root Dev. (lettuce seeds; 0.5 mM): 0
Bleaching (lettuce seeds; 1.0 mM): 3
Germination (lettuce seeds; 1.0 mM): 2
Root Dev. (lettuce seeds; 1.0 mM): 0
IC50 (AtIspD): > 1000 µM
IC50 (LeIspE): > 1000 µM
IC50 (AtIspF): > 1000 µM
BT score [4]: 0
MS score (Mycobacterium smegmatis [5]): 0
CX score (Corynebacterium xerosis [6]): 0
CP score [7]: 0
EC score (Escherichia coli [8]): 0
KP score (Klebsiella pneumonia [9]): 0
ML score (Micrococcus luteus [10]): 0
BC score (Bacillus cereus [11]): 0
PA score (Pseudomonas aeruginosa [12]): 0
STD-NMR binding to MpIspD [13]: bound
STD-NMR binding to MaIspE [14]: bound
melting point: 205 to 207 °C

Clc1ccc(OCc2nnc(-c3nc4ccccc4s3)o2)c(Cl)c1 [HGN-333, 2-(benzo[d]thiazol-2-yl)-5-((2,4-dichlorophenoxy)methyl)-1,3,4-oxadiazole]
MtIspD melting point change [1]: 1.3 °C
MtIspD melting temp [1]: 49.3 °C
LeIspE melting point change [2]: −1.75 °C
LeIspE melting temp [2]: 47.75 °C
IC50 (Ec IspE): 3 µM
IC50 (Bt IspE [15]): 28 µM
Bleaching (lettuce seeds; 0.15 mM): 0
Germination (lettuce seeds; 0.15 mM): 0
Root Dev. (lettuce seeds; 0.15 mM): 0
Bleaching (lettuce seeds; 0.3 mM): 0
Germination (lettuce seeds; 0.3 mM): 0
Root Dev. (lettuce seeds; 0.3 mM): 0
IC50 (AtIspD): 151 µM
IC50 (LeIspE): 31 µM
IC50 (AtIspF): 291 µM
BT score [4]: 0
MS score (Mycobacterium smegmatis [5]): 0
CX score (Corynebacterium xerosis [6]): 0
CP score [7]: 0
EC score (Escherichia coli [8]): 0
KP score (Klebsiella pneumonia [9]): 0
ML score (Micrococcus luteus [10]): 0
BC score (Bacillus cereus [11]): 0
effectiveness against Pseudomonas aeruginosa (Pseudomonas aeruginosa [12]): moderately effective
PA score (Pseudomonas aeruginosa [12]): 2
Antibacterial Bt zone of inhibition ([16]; 0.1 mM): 0 millimeters
Antibacterial Bt zone of inhibition ([16]; 0.5 mM): 15 millimeters
Antibacterial Bt zone of inhibition ([16]; 1 mM): 19 millimeters
Antibacterial Pa zone of inhibition (Pseudomonas aeruginosa [17]; 0.1 mM): 0 millimeters
Antibacterial Pa zone of inhibition (Pseudomonas aeruginosa [17]; 0.5 mM): 18 millimeters
Antibacterial Pa zone of inhibition (Pseudomonas aeruginosa [17]; 1 mM): 25 millimeters
Antibacterial Ml zone of inhibition (Micrococcus luteus [18]; 0.1 mM): 0 millimeters
Antibacterial Ml zone of inhibition (Micrococcus luteus [18]; 0.5 mM): 0 millimeters
Antibacterial Ml zone of inhibition (Micrococcus luteus [18]; 1 mM): 0 millimeters
Antibacterial Kp zone of inhibition (Klebsiella pneumonia [19]; 0.1 mM): 0 millimeters
Antibacterial Kp zone of inhibition (Klebsiella pneumonia [19]; 0.5 mM): 0 millimeters
Antibacterial Kp zone of inhibition (Klebsiella pneumonia [19]; 1 mM): 0 millimeters
Antibacterial Ec zone of inhibition (Escherichia coli [20]; 0.1 mM): 0 millimeters
Antibacterial Ec zone of inhibition (Escherichia coli [20]; 0.5 mM): 0 millimeters
Antibacterial Ec zone of inhibition (Escherichia coli [20]; 1 mM): 0 millimeters
Antibacterial Bc zone of inhibition (Bacillus cereus [21]; 0.1 mM): 0 millimeters
Antibacterial Bc zone of inhibition (Bacillus cereus [21]; 0.5 mM): 0 millimeters
Antibacterial Bc zone of inhibition (Bacillus cereus [21]; 1 mM): 12.5 millimeters
Antibacterial Ms zone of inhibition (Mycobacterium smegmatis [22]; 0.1 mM): 0 millimeters
Antibacterial Ms zone of inhibition (Mycobacterium smegmatis [22]; 0.5 mM): 0 millimeters
Antibacterial Ms zone of inhibition (Mycobacterium smegmatis [22]; 1 mM): 0 millimeters
Antibacterial Cx zone of inhibition (Corynebacterium xerosis [23]; 0.1 mM): 0 millimeters
Antibacterial Cx zone of inhibition (Corynebacterium xerosis [23]; 0.5 mM): 0 millimeters
Antibacterial Cx zone of inhibition (Corynebacterium xerosis [23]; 1 mM): 0 millimeters
Antibacterial Cp zone of inhibition ([24]; 0.1 mM): 0 millimeters
Antibacterial Cp zone of inhibition ([24]; 0.5 mM): 0 millimeters
Antibacterial Cp zone of inhibition ([24]; 1 mM): 0 millimeters
melting point: 163 to 165 °C
KD app (ITC, words) (Bt IspE [25]): in the nanomolar range
binding stoichiometry (ITC) (Bt IspE [25]): 0.903
ΔH° (ITC) (Bt IspE [25]): -8.6 kcal/mol
−TΔS (ITC) (Bt IspE [25]): -17.8 kcal/mol
entropic contribution −TΔS (ITC) (Bt IspE [25]; b178, unit not given): −17.8

Oc1c(Br)cc(Br)cc1-c1[nH]c(Br)c(Br)c1Br [pentabromopseudilin]
IC50 ([26]; with 40 μM Cd2+ added): 1.4 ± 0.2 µM
IC50 ([26]; without a metal added): 13 ± 2 µM
